This test relates to hypoxia-inducible endogenous VEGF expression in HeLa cells. The experiment in a line: Hypoxia-inducible endogenous VEGF expression, VEGF ELISA of conditioned media (dose-response EC50). The following applies: HeLa cells, hypoxic conditions (1% O2). Type of test: cell-based. Put shortly: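 Secreted VEGF was quantified by ELISA against a per-assay standard curve after HeLa cells spent 24-48 h in 1% O2, 5% CO2, N2 balance with or without compound. Across a series of, e.g., seven concentrations, percentage inhibition (max 100%, min 0%) gave EC50 and CC50 values.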

pEC50: −log10 of the molar value.

One may read the pEC50 as −log10 of the EC50, conventionally taken in molar units.

Regarding `CCOC(=O)N1CCc2c([nH]c3ccc(Cl)cc23)C1c1ccc(C(=O)N2CCN(CC)CC2)cc1` (stereo not shown) [Compound 473], the pEC50 (Homo sapiens) was 6.70 to 7.40.
On the same count and under the same terms, as for `CCOC(=O)N1CCc2c([nH]c3ccc(Br)cc23)C1c1ccc(CN2CCN(C)CC2)cc1` (stereo not shown) [Compound 474], the figure is 6.70 to 7.40.
The same measure, in the same setting: as for `CN(C)c1ncc(C2c3[nH]c4ccc(Cl)cc4c3CCN2C(=O)Oc2ccc(Cl)cc2)cn1` (stereo not shown) [Compound 475], the figure is 6.70 to 7.40; as for `CCOC(=O)N1CCc2c([nH]c3ccc(Cl)cc23)C1c1cnc(N(C)C)nc1` (stereo not shown) [Compound 476], 6.70 to 7.40.
Still for that read-out and setting: as for `CC(C)C1NCCc2c1[nH]c1ccc(Cl)cc21` (stereo not shown) [Compound 477], the figure is 6.70 to 7.40; as for `CCOC(=O)N1CCc2c([nH]c3ccc(Br)cc23)C1c1ccc(C(=O)N2CCN(C)CC2)cc1` (stereo not shown) [Compound 478], 6.70 to 7.40.
In turn, `CN(C)CCCOc1ccc(C2c3[nH]c4ccc(Cl)cc4c3CCN2C(=O)Oc2ccc(Cl)cc2)cc1` (stereo not shown) [Compound 479] had a pEC50 of 6.70 to 7.40.
`CCOC(=O)N1CCc2c([nH]c3ccc(Br)cc23)C1c1ccc(C(=O)NC)cc1` (stereo not shown) [Compound 480] showed a pEC50 (Homo sapiens) of 6.70 to 7.40.
Same read-out and setting: as for `CCOC(=O)N1CCc2c([nH]c3ccc(Cl)cc23)C1c1ccc(C(=O)N2CCN(C3CCCCC3)CC2)cc1` (stereo not shown) [Compound 481], the figure is 6.70 to 7.40; as for `CC(C)C(=O)Nc1ccc(C2c3[nH]c4ccc(Cl)cc4c3CCN2C(=O)Oc2ccc(Cl)cc2)cc1` (stereo not shown) [Compound 482], 6.70 to 7.40.
The same measure, in the same setting: as for `CCOC(=O)N1CCc2c([nH]c3ccc(Br)cc23)C1c1ccc(C(=O)N(C)C)cc1` (stereo not shown) [Compound 483], the figure is 6.70 to 7.40; as for `CCOC(=O)N1CCc2c([nH]c3ccc(Br)cc23)C1c1ccc(C(=O)N2CCCN(C)CC2)cc1` (stereo not shown) [Compound 484], 6.70 to 7.40; as for `COC(=O)C(=O)N1CCc2c([nH]c3ccc(Cl)cc23)C1c1ccc(OC)cc1` (stereo not shown) [Compound 485], 6.70 to 7.40.
Where the note is “Homo sapiens”, `CCOC(=O)N1CCc2c([nH]c3ccc(Cl)cc23)C1CC(C)(C)C` (stereo not shown) [Compound 486] showed a pEC50 of 6.70 to 7.40.
On the same count and under the same terms, as for `CCOC(=O)N1CCc2c([nH]c3ccc(Cl)cc23)C1c1ccc(S(=O)(=O)N2CCOCC2)cc1` (stereo not shown) [Compound 487], the figure is 6.70 to 7.40; as for `CCOC(=O)N1CCc2c([nH]c3ccc(Br)cc23)C1c1ccc(C(=O)NCCN2CCOCC2)cc1` (stereo not shown) [Compound 488], 6.70 to 7.40.
The same measure, in the same setting: the same measure for `CC(C)OC(=O)Nc1ccc(C2c3[nH]c4ccc(Cl)cc4c3CCN2C(=O)Oc2ccc(Cl)cc2)cc1` (stereo not shown) [Compound 489]: 6.70 to 7.40.
The same measure, in the same setting: the same measure for `CCOC(=O)N1CCc2c([nH]c3ccc(Br)cc23)C1c1ccc(C(=O)NCCO)cc1` (stereo not shown) [Compound 490]: 6.70 to 7.40; for `CN(C)CC(=O)Nc1ccc(C2c3[nH]c4ccc(Cl)cc4c3CCN2C(=O)Oc2ccc(Cl)cc2)cc1` (stereo not shown) [Compound 491]: 6.70 to 7.40; for `CCOC(=O)N1CCc2c([nH]c3ccc(Cl)cc23)C1c1ccc(C(=O)N2CCOCC2)cc1` (stereo not shown) [Compound 492]: 6.70 to 7.40.
With `CN(C)CCCOc1ccc(C2c3[nH]c4ccc(Cl)cc4c3CCN2C(=O)Oc2ccccc2)cc1` (stereo not shown) [Compound 493], the pEC50 (Homo sapiens) was 6.70 to 7.40.
The same measure, in the same setting: as for `CCOC(=O)N1CCc2c([nH]c3ccc(Cl)cc23)C1c1ccc(C(=O)NCC2CCCO2)cc1` (stereo not shown) [Compound 494], the figure is 6.70 to 7.40; as for `CCOC(=O)N1CCc2c([nH]c3ccc(Br)cc23)C1c1cnc(NC)nc1` (stereo not shown) [Compound 496], 6.70 to 7.40.
Still for that read-out and setting: as for `CSCCC1NCCc2c1[nH]c1ccc(Cl)cc21` (stereo not shown) [Compound 497], the figure is 6.70 to 7.40.
On the same count and under the same terms, the same measure for `CCOC(=O)N1CCc2c([nH]c3ccc(Cl)cc23)C1c1ccc(C(=O)N2CCN(C)CC2)cc1` (stereo not shown) [Compound 498]: 6.70 to 7.40.
The compound `CCOC(=O)N1CCc2c([nH]c3ccc(Cl)cc23)C1c1coc2ccccc2c1=O` (stereo not shown) [Compound 499] had a pEC50 (Homo sapiens) of 6.70 to 7.40.
Compound `C=CC(=O)Nc1ccc(C2c3[nH]c4ccc(Cl)cc4c3CCN2C(=O)Oc2ccc(Cl)cc2)cc1` (stereo not shown) [Compound 500] showed a negative logarithm of the EC50 (pEC50) (Homo sapiens) of 6.70 to 7.40.
The same measure, in the same setting: the same measure for `COc1ccc(OC(=O)N2CCc3c([nH]c4ccc(Cl)cc34)C2c2ccc(OCCCN(C)C)cc2)cc1` (stereo not shown) [Compound 501]: 6.70 to 7.40.

Values taken from patent US8076352B2, “Administration of carboline derivatives useful in the treatment of cancer and other diseases” (PTC Therapeutics, Inc., priority 2004, dated 2011).
